Experimental data as given in patent US20020128464A1, “Method of finding modulators of enzymes of the carotenoid biosynthetic pathway” (priority 2000, published 2002).

How the values were obtained:
Erwinia uredovora PSY = Erwinia uredovora PSY (Pantoea ananas, UniProt P21683); conditions: overexpressed Erwinia uredovora PSY (Neudert, 1998); read-out: pI valve (inhibition of phytoene synthase); cited from earlier work
PDS = conditions: in vitro (Trebst, 1997); cited from earlier work
tobacco plants = assay: Carotenoid content (phytoene accumulation) of treated tobacco plants, HPLC; format: in vivo, Nicotiana tabacum; conditions: tobacco plants treated with norflurazon; comparator for PDS antisense lines

Sequence of Erwinia uredovora PSY (P21683 whole entry): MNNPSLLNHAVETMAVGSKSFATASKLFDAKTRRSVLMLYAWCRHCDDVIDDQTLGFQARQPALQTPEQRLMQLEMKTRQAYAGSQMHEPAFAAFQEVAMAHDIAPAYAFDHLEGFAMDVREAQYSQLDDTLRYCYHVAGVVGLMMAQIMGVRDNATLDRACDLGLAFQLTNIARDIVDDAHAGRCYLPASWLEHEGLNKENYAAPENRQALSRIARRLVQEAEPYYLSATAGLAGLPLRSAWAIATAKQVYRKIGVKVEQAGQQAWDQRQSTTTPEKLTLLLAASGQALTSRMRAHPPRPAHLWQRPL

| Molecule | IC50 (Erwinia uredovora PSY) | photosystem II activity following inhibition of PDS (PDS) | accumulation of phytoene (tobacco plants) |
| --- | --- | --- | --- |
| C=C(CC[C@]12O[C@H](C(=O)O)[C@@](O)(C(=O)O)[C@](C(=O)O)(O1)[C@H](OC(=O)/C=C/[C@@H](C)C[C@@H](C)CC)[C@H]2O)[C@@H](OC(C)=O)[C@H](C)Cc1ccccc1 [squalestatin] | 15 µM | – | – |
| fluridone | – | loss of photosystem II activity | – |
| CNc1cnn(-c2cccc(C(F)(F)F)c2)c(=O)c1Cl [norflurazon] | – | loss of photosystem II activity | very high accumulation of phytoene |
